Columns and labels:
[1] = Active component solubility in solvents at 10° C. and 54° C. (visual, HPLC for undissolved samples); settings: for Approximate Percent (%) Solubility Determination of Active Components in Solvents (Malathion At 10° C.) / Approximate Percent (%) Solubility Determination of Active Components in Solvents (Malathion At 54° C.): 20 g Malathion in 10 g solvent; for Approximate Percent (%) Solubility Determination of Active Components in Solvents (Malathion At 10° C.) / Approximate Percent (%) Solubility Determination of Active Components in Solvents (Metolachlor At 10° C.): about two weeks at 10° C.; for Approximate Percent (%) Solubility Determination of Active Components in Solvents (Malathion At 10° C.) / Approximate Percent (%) Solubility Determination of Active Components in Solvents (Malathion At 54° C.) / Approximate Percent (%) Solubility Determination of Active Components in Solvents (Metolachlor At 10° C.) / Approximate Percent (%) Solubility Determination of Active Components in Solvents (Metolachlor At 54° C.): totally soluble = no particles visually detectable; for Approximate Percent (%) Solubility Determination of Active Components in Solvents (Malathion At 54° C.) / Approximate Percent (%) Solubility Determination of Active Components in Solvents (Metolachlor At 54° C.): about two weeks at 54° C.; for Approximate Percent (%) Solubility Determination of Active Components in Solvents (Metolachlor At 10° C.) / Approximate Percent (%) Solubility Determination of Active Components in Solvents (Metolachlor At 54° C.): 20 g Metolachlor in 10 g solvent; for miscible in the Solvent 1 up to: active component in Solvent 1 (Examples 1-3)
[2] = Determination of VOC content (percentage weight loss of solvent aliquot on heating); format: physicochemical; settings: 10 mg aliquot, furnace 35° C. raised 5° C. per minute, held isothermally at 115° C.
Description: A series of solvents are evaluated to determine a content of volatile organic compounds (VOCs) and suitability for use in this invention. More specifically, the 1,2-cyclohexanedicarboxylic acid diisononyl ester (Hexamoll® Dinch) of this invention is evaluated as Solvent 1. Twelve additional comparative solvents (Comparative Solvents 1-12) are also evaluated.
After addition of the aliquots to the pans, the pans are placed in a furnace at 35° C. The temperature of the furnace is then raised at a rate of 5° C. per minute and held isothermally at 115° C. When mass loss stabilizes at less than 0.5% for 5 minutes, the temperature is then held at 115° C. for an additional 15 minutes. Total run times average about 80 minutes. The results of the VOC content evaluations are set forth in Table 1 below wherein all values represent percentage weight loss of the aliquot and correlate to approximate VOC content.

Row | Structure (SMILES) | Approximate Percent (%) Solubility Determination of Active Components in Solvents (Malathion At 10° C.) [1] | Approximate Percent (%) Solubility Determination of Active Components in Solvents (Malathion At 54° C.) [1] | Approximate Percent (%) Solubility Determination of Active Components in Solvents (Metolachlor At 10° C.) [1] | Approximate Percent (%) Solubility Determination of Active Components in Solvents (Metolachlor At 54° C.) [1] | % Total Weight Loss = VOC Content [2] | miscible in the Solvent 1 up to [1]
1 | CC(O)CO (stereo not shown) [Comparative Solvent 7, propylene glycol] | Totally Soluble | Totally Soluble | Totally Soluble | Totally Soluble | 100% | –
2 | CC(C)CCCCCCOC(=O)C1CCCCC1C(=O)OCCCCCCC(C)C (stereo not shown) [Solvent 1, 1,2-cyclohexanedicarboxylic acid diisononyl ester] | Totally Soluble | Totally Soluble | Totally Soluble | Totally Soluble | 0.33% | –
3 | CC1COC(=O)O1 (stereo not shown) [Comparative Solvent 5, propylene carbonate] | Totally Soluble | Totally Soluble | Totally Soluble | Totally Soluble | 100% | –
4 | COC(=O)CCCCC(=O)OC [Comparative Solvent 10, dimethyl adipate] | Totally Soluble | Totally Soluble | Totally Soluble | Totally Soluble | 100% | –
5 | CCc1cccc(C)c1N(C(=O)CCl)C(C)COC (stereo not shown) [Metolachlor] | – | – | – | – | – | approximately 66 weight percent
6 | CCOC(=O)CC(SP(=S)(OC)OC)C(=O)OCC (stereo not shown) [Malathion] | – | – | – | – | – | approximately 66 weight percent

Reference: US9173392B2, “Emulsifiable concentrate” (priority 2010, dated 2015)
